Measurements: ChEMBL document CHEMBL3421624, “Design and Synthesis of Antitumor Heck-Coupled Sclareol Analogues: Modulation of BH3 Family Members by SS-12 in Autophagy and Apoptotic Cell Death” (J Med Chem, 2015)
Activity calls are given as the source filed them. No cut-off for these calls is given here.

Experiments:
PC-3 [1] = experiment: Inhibition of Akt S473 phosphorylation in human PC3 cells at 0.1 to 0.3 uM after 24 hrs by Western blotting method; type: cell-based
PC-3 [2] = experiment: Inhibition of Akt in human PC3 cells assessed as reduction in mTOR S2448 phosphorylation at 0.1 to 0.3 uM after 24 hrs by Western blotting method; type: cell-based
[3] = Cytotoxicity against human PC3 cells after 48 hrs by MTT assay; type: functional, cell-based; details: PC-3, 48 h
A549 = experiment: Cytotoxicity against human A549 cells after 48 hrs by MTT assay; type: functional, cell-based; details: A549, 48 h
HeLa = experiment: Cytotoxicity against human HeLa cells after 48 hrs by MTT assay; type: functional, cell-based
PC-3 [4] = experiment: Induction of autophagy in human PC3 cells at 100 to 300 nM after 24 hrs by acridine orange staining based fluorescence microscopy; type: functional
PC-3 [5] = experiment: Effect on MAP1LC3 I/II protein expression in human PC3 cells at 0.2 to 0.3 uM after 24 hrs by immunoblotting method; type: functional, cell-based
PC-3 [6] = experiment: Effect on SQSTM1/P62 protein expression in human PC3 cells at 0.2 to 0.3 uM after 24 hrs by immunoblotting method; type: functional, cell-based
PC-3 [7] = experiment: Effect on Beclin-1 protein expression in human PC3 cells at 0.2 to 0.3 uM after 24 hrs by immunoblotting method; type: functional, cell-based
PC-3 [8] = experiment: Induction of apoptosis in human PC3 cells at 100 to 300 nM after 24 hrs; type: functional, cell-based
PC-3 [9] = experiment: Induction of autophagy in human PC3 cells at 100 to 300 nM after 24 hrs; type: functional, cell-based
PC-3 [10] = experiment: Induction of apoptosis in human PC3 cells assessed as caspase-3 cleavage at 300 nM after 24 hrs by Western blotting method; type: functional, cell-based
PC-3 [11] = experiment: Induction of autophagy in human PC3 cells at 100 to 300 nM after 24 hrs by MDC staining based fluorescence microscopy; type: functional, cell-based
PC-3 [12] = experiment: Induction of autophagy in human PC3 cells assessed as increase in punctate EGFP-LC3 pattern in autophagosomes at 100 nM after 24 hrs by fluorescence microscopy; type: functional, cell-based
PC-3 [13] = experiment: Induction of autophagy in human PC3 cells assessed as increase LC3 intracellular localization at 100 nM after 24 hrs by immunocytochemistry; type: functional, cell-based
PC-3 [14] = experiment: Induction of autophagy in human PC3 cells assessed as increase in punctate EGFP-LC3 pattern in autophagosomes at 300 nM after 24 hrs by fluorescence microscopy; type: functional, cell-based

Structure (SMILES)	IC50 [3]	IC50 (A549)	IC50 (HeLa)	also measured
C=C[C@](C)(O)CC[C@@H]1[C@@]2(C)CCCC(C)(C)[C@@H]2CC[C@@]1(C)O [SCLAREOL]	0.105 µM	3.21 µM	3.35 µM	inhibition (PC-3 [1]): Active; inhibition (PC-3 [2]): Active; Activity (PC-3 [4]): <=5%; Activity (PC-3 [5]): inactive; Activity (PC-3 [6]): inactive; Activity (PC-3 [7]): inactive; Activity (PC-3 [8]): inactive; Activity (PC-3 [9]): inactive; Activity (PC-3 [10]): Active
Cc1cccc(/C=C/[C@](C)(O)CC[C@@H]2[C@@]3(C)CCCC(C)(C)[C@@H]3CC[C@@]2(C)O)c1C	3.5 µM	3.8 µM	3.7 µM	–
COc1cccc(/C=C/[C@](C)(O)CC[C@@H]2[C@@]3(C)CCCC(C)(C)[C@@H]3CC[C@@]2(C)O)c1OC	2.9 µM	3.28 µM	3.88 µM	–
Cc1ccc(C)c(/C=C/[C@](C)(O)CC[C@@H]2[C@@]3(C)CCCC(C)(C)[C@@H]3CC[C@@]2(C)O)c1	0.176 µM	3.32 µM	3.38 µM	Activity (PC-3 [11]): Active; Activity (PC-3 [4]): Active
Cc1cccc(C)c1/C=C/[C@](C)(O)CC[C@@H]1[C@@]2(C)CCCC(C)(C)[C@@H]2CC[C@@]1(C)O	0.278 µM	3.34 µM	3.46 µM	–
CC1(C)CCC[C@]2(C)[C@@H](CC[C@@](C)(O)/C=C/c3ccc(Cl)nc3)[C@](C)(O)CC[C@@H]12	0.275 µM	3.28 µM	3.68 µM	–
CC1(C)CCC[C@]2(C)[C@@H](CC[C@@](C)(O)/C=C/c3ccc(C(=O)O)cc3)[C@](C)(O)CC[C@@H]12	0.102 µM	44.3 µM	45.4 µM	Activity (PC-3 [11]): Active; Activity (PC-3 [4]): Active
CC1(C)CCC[C@]2(C)[C@@H](CC[C@@](C)(O)/C=C/c3cccc([N+](=O)[O-])c3)[C@](C)(O)CC[C@@H]12	0.153 µM	3.4 µM	3.38 µM	Activity (PC-3 [11]): Active; Activity (PC-3 [4]): Active
CC1(C)CCC[C@]2(C)[C@@H](CC[C@@](C)(O)/C=C/c3cncc4ccccc34)[C@](C)(O)CC[C@@H]12	3.9 µM	45.7 µM	46 µM	–
CC1(C)CCC[C@]2(C)[C@@H](CC[C@@](C)(O)/C=C/c3ccccc3)[C@](C)(O)CC[C@@H]12	0.121 µM	3.15 µM	3.32 µM	Activity (PC-3 [11]): Active; Activity (PC-3 [4]): Active
CO[C@H]1C[C@@H]2CC[C@@H](C)[C@@](O)(O2)C(=O)C(=O)N2CCCC[C@H]2C(=O)O[C@H]([C@H](C)C[C@@H]2CC[C@@H](O)[C@H](OC)C2)CC(=O)[C@H](C)/C=C(\C)[C@@H](O)[C@@H](OC)C(=O)[C@H](C)C[C@H](C)/C=C/C=C/C=C/1C	–	–	–	Activity (PC-3 [12]): inactive; Activity (PC-3 [13]): inactive
CN[C@@H]1C[C@H]2O[C@@](C)([C@@H]1OC)n1c3ccccc3c3c4c(c5c6ccccc6n2c5c31)C(=O)NC4 [STAUROSPORINE]	0.031 µM	–	–	–
CC1(C)CCC[C@]2(C)[C@@H](CC[C@@](C)(O)/C=C/c3c4ccccc4c(Br)c4ccccc34)[C@](C)(O)CC[C@@H]12	0.301 µM	44.9 µM	46 µM	–
CO/C1=C\C(C)=C\[C@@H](C)[C@@H](O)[C@@H](C)C/C(C)=C/C=C/[C@H](OC)[C@@H]([C@@H](C)[C@@H](O)[C@H](C)[C@@]2(O)C[C@@H](O)[C@H](C)[C@@H](C(C)C)O2)OC1=O	–	–	–	Activity (PC-3 [14]): inactive
CC1(C)CCC[C@]2(C)[C@@H](CC[C@@](C)(O)/C=C/c3ccc(Oc4ccccc4)cc3)[C@](C)(O)CC[C@@H]12	0.268 µM	3.2 µM	3.48 µM	–
CC1(C)CCC[C@]2(C)[C@@H](CC[C@@](C)(O)/C=C/c3ccc(Br)cc3)[C@](C)(O)CC[C@@H]12	41.3 µM	43.2 µM	45.9 µM	–
CC(C)(C)c1ccc(/C=C/[C@](C)(O)CC[C@@H]2[C@@]3(C)CCCC(C)(C)[C@@H]3CC[C@@]2(C)O)cc1	3.8 µM	45 µM	48.5 µM	–
COc1cccc(OC)c1/C=C/[C@](C)(O)CC[C@@H]1[C@@]2(C)CCCC(C)(C)[C@@H]2CC[C@@]1(C)O	4 µM	42 µM	48.2 µM	–
